Measurements from patent US11364222B2, “Combination therapy for treatment of cancer” (G1 Therapeutics, Inc., priority 2017, dated 2022).
Entries after “also recorded” stand apart in the source; their conditions may differ.

Legend:
[1] = tested on: MCF-7 cells; experiment: MCF7 7 day proliferation assay in the presence of 0.1 nM E2 (Hoechst DNA content); type: cell-based; conditions: for IC50: Homo sapiens, MCF7, 168 h, read-out: IC50, MCF7 proliferation
[2] = tested on: MCF-7 cells; experiment: MCF7 7 day proliferation assay in the presence of 20 nM insulin (Hoechst DNA content); type: cell-based; conditions: Homo sapiens, MCF7, 168 h, read-out: IC50, MCF7 insulin driven proliferation
[3] = tested on: MCF7:WS8; experiment: Cell viability of MCF7:WS8, fluorescent DNA quantitation; type: cell-based; conditions: MCF7:WS8 cells, day 4, total DNA; for IC50: 96 h, read-out: MCF-7WS8 IC50
[4] = tested on: MCF7:5C; experiment: Cell viability of MCF7:5C (tamoxifen resistant), fluorescent DNA quantitation; type: cell-based; conditions: 144 h, read-out: MCF-7:5C IC50
[5] = target: T1, estrogen receptor (ER) (Homo sapiens, UniProt P03372); conditions: MCF7 cells, presence or absence of proteasome pathway inhibitor MG132, FIG. 4
T1 sequence (P03372 1-595): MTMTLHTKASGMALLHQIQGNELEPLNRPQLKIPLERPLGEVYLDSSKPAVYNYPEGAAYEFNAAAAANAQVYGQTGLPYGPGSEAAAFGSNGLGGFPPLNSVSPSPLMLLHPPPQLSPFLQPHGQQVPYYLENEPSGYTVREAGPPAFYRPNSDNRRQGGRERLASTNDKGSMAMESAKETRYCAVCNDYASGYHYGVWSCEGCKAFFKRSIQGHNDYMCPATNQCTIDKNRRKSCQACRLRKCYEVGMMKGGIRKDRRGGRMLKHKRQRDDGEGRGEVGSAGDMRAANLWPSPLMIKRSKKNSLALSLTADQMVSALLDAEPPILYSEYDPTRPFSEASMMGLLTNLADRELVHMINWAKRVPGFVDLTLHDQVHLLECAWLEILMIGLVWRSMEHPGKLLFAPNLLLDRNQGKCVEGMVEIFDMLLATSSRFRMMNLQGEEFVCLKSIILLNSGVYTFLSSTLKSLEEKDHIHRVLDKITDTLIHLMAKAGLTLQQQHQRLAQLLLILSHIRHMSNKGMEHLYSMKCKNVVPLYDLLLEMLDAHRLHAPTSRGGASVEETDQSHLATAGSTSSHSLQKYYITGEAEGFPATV

[6] = Oral bioavailability (summary statement); conditions: in vivo
[7] = target: hERG (Homo sapiens, UniProt Q12809); experiment: hERG inhibition (summary statement)
[8] = Glucuronidation in gut intestinal mucosa and liver S9 fraction; type: in vitro ADME; conditions: gut intestinal mucosa and human S9 fraction from the liver
[9] = tested on: LTED xenograft tumors; experiment: LTED xenograft tumors, model of aromatase inhibitor resistance; type: in vivo, OVX nu/nu (ovariectomy nude) mice; conditions: Compound 20 5, 10, 30 or 100 mg/kg, 30 days of treatment, FIG. 13
[10] = tested on: estrogen-receptor negative cell; experiment: Estrogen-receptor negative cell proliferation (summary statement); type: cell-based
[11] = tested on: tamoxifen-resistant (TamR) xenograft tumors; experiment: Tamoxifen-resistant (TamR) xenograft tumors, tumor volume; type: in vivo; conditions: 30 mg/kg qd and 100 mg/kg qd, approximately 70 days, FIG. 12B
[12] = tested on: estrogen-receptor positive cell; experiment: Estrogen-receptor positive cell proliferation (summary statement); type: cell-based

Chain of hERG (Q12809 whole entry): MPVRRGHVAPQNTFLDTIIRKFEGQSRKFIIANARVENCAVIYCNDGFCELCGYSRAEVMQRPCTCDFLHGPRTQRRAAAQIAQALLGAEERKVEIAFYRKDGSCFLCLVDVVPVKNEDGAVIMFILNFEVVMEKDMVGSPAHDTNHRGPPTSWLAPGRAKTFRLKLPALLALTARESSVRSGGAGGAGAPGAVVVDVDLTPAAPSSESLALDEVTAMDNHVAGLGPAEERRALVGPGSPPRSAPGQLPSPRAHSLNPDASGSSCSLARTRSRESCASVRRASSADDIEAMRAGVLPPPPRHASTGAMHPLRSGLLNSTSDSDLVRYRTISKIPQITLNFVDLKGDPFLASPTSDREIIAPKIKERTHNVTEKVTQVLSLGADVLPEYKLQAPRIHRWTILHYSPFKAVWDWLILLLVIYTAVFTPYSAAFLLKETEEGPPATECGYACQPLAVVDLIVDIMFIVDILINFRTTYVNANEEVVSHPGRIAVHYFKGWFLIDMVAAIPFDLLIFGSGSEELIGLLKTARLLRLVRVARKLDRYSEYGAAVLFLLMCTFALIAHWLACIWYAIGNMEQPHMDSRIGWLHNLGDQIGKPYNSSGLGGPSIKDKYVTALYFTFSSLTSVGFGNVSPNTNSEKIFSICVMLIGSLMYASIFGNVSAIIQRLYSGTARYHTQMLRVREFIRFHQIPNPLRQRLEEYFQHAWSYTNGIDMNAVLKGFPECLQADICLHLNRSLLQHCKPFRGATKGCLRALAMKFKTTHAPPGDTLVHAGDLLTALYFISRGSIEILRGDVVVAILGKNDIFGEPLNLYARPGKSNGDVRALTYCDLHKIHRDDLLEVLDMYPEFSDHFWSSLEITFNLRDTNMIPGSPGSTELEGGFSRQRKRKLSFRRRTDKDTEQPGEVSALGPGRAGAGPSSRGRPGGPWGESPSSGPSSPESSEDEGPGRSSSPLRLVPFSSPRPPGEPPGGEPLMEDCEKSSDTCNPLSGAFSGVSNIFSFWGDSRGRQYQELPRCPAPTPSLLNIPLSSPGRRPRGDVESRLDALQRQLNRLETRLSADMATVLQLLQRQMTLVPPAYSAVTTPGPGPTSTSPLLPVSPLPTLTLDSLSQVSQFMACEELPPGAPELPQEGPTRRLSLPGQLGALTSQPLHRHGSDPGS

In the case of `CC/C(=C(\c1ccc(O)cc1)c1ccc(OCCN(C)C)cc1)c1ccccc1` [4-hydroxytamoxifen], the IC50 [1] is reported as 3.46 nM.
For `C[C@@H]1Cc2c([nH]c3ccccc23)[C@@H](c2c(F)cc(/C=C/C(=O)O)cc2F)N1CC(C)(C)F` [AZD9496], the IC50 [2] was 0.002 nM and the IC50 [1] was 0.04 nM.
In the case of `O=C(O)/C=C/c1ccc(Oc2c(C(=O)c3ccc(O)cc3)sc3cc(O)ccc23)cc1` [Compound 2, (E)-3-(4-((6-Hydroxy-2-(4-hydroxybenzoyl)benzo[b]thiophen-3-yl)oxy)phenyl) acrylic acid], the “MCF-7WS8 IC50 (nM)” value [3] is reported as “No Inhiibition”.
Work on `Cc1cc(F)ccc1C(=O)c1sc2cc(O)ccc2c1Oc1c(F)cc(/C=C/C(=O)O)cc1F` [Compound 14, (E)-3-(3,5-Difluoro-4-((2-(4-fluoro-2-methylbenzoyl)-6-hydroxybenzo[b]thiophen-3-yl)oxy)phenyl) acrylic acid] yielded an IC50 [3] greater than 10 nM and an IC50 [4] greater than 10 nM.
`Cc1cc(F)ccc1C(=O)c1sc2cc(O)ccc2c1Oc1ccc(/C=C/C(=O)O)cc1F` [Compound 15, (E)-3-(3-Fluoro-4-((2-(4-fluoro-2-methylbenzoyl)-6-hydroxybenzo[b]thiophen-3-yl)oxy)phenyl) acrylic acid] gave an IC50 [3] of less than 10 nM and an IC50 [4] of less than 10 nM.
Molecule `Cc1cc(F)ccc1C(F)(F)c1sc2cc(O)ccc2c1Oc1ccc(/C=C/C(=O)O)cc1` [Compound 16, (E)-3-(4-((2-(Difluoro(4-fluoro-2-methylphenyl)methyl)-6-hydroxybenzo[b]thiophen-3-yl)oxy)phenyl)acrylic acid] has an IC50 [3] of less than 100 nM and an IC50 [4] of less than 100 nM.
Molecule `Cc1cc(F)ccc1C1(c2sc3cc(O)ccc3c2Oc2ccc(/C=C/C(=O)O)cc2)CC1` [Compound 17, (E)-3-(4-((2-(1-(4-Fluoro-2-methylphenyl)cyclopropyl)-6-hydroxybenzo[b]thiophen-3-yl)oxy)phenyl) acrylic acid] has an IC50 [3] of less than 100 nM and an IC50 [4] of less than 100 nM.
With `Cc1cc(F)ccc1C(=O)c1sc2cc(O)ccc2c1Oc1ccc(NC(=O)C(=O)O)cc1` [Compound 18, 2-((4-((2-(4-Fluoro-2-methylbenzoyl)-6-hydroxybenzo[b]thiophen-3-yl)oxy)phenyl)amino)-2-oxoacetic acid] the “MCF-7WS8 IC50 (nM)” value [3] was “No Inhibition”.
In the case of `Cc1ccc(C(=O)c2sc3cc(O)ccc3c2Oc2ccc(NC(=O)C(=O)O)cc2)c(C)c1` [Compound 19, 2-((4-((2-(2,4-Dimethylbenzoyl)-6-hydroxybenzo[b]thiophen-3-yl)oxy)phenyl)amino)-2-oxoacetic acid], the “MCF-7WS8 IC50 (nM)” value [3] is reported as “No Inhibition” and the IC50 [4] is reported as greater than 10 nM.
With `Cc1cc(F)cc(C)c1C(=O)c1sc2cc(O)ccc2c1Oc1ccc(/C=C/C(=O)O)cc1` [Compound 20, (E)-3-(4-((2-(4-Fluoro-2,6-dimethylbenzoyl)-6-hydroxybenzo[b]thiophen-3-yl)oxy)phenyl) acrylic acid] the “degradation of the estrogen receptor (ESR1a) with or without MG132” value [5] was “dependent on the absence of MG132”, the oral bioavailability [6] was “good” and the IC50 [7] was greater than 10000 nM. The IC50 ([2]; 20 nM insulin, 7 day) was 0.028 nM, the glucuronidation [8] was “observed” and the “times more potent than fulvestrant” value ([1]; 0.1 nM E2, 7 day proliferation) was roughly 4 times. For the same molecule, the IC50 ([1]; 0.1 nM estradiol (E2), 7 day) was 0.26 nM, the tumor volume [9] was “decrease in tumor volume correlated with the dose level; also recorded: effective in decreasing tumor volume at all doses” and the IC50 [10] was greater than 10 nM. The “tumor volume, Compound 20 alone” value [11] was “effective in decreasing tumor volume” and the IC50 [12] was less than 1 nM.
Work on `CC/C(=C(/c1ccc(/C=C/C(=O)O)cc1)c1ccc2[nH]ncc2c1)c1ccc(F)cc1Cl` [GDC-0810] yielded an IC50 ([2]; 20 nM insulin, 7 day) of 0.055 nM and an IC50 ([1]; 0.1 nM estradiol (E2), 7 day) of 1.84 nM.
Molecule `CC/C(=C(\c1ccccc1)c1ccc(/C=C/C(=O)O)cc1)c1ccccc1` [GW-5638, Etacstil] has an IC50 ([1]; 0.1 nM estradiol (E2), 7 day) of 946 nM.
`CC/C(=C(\c1ccccc1)c1ccc(/C=C/C(=O)O)cc1)c1ccc(O)cc1` [GW-7604] showed an IC50 ([1]; 0.1 nM estradiol (E2), 7 day) of 1.81 nM.
For `C[C@]12C[C@H](c3ccc(OCCCCCS(=O)(=O)CCCC(F)(F)C(F)(F)F)cc3)[C@@H]3c4ccc(O)cc4CC[C@H]3[C@@H]1CC[C@@H]2O` [RU 58668], the IC50 ([2]; 20 nM insulin, 7 day) was 0.013 nM and the IC50 ([1]; 0.1 nM estradiol (E2), 7 day) was 0.052 nM.
`Cc1c(-c2ccc(O)cc2)n(Cc2ccc(OCCN3CCCCCC3)cc2)c2ccc(O)cc12` [bazedoxifene] gave an IC50 [1] of 72 nM.
`C[C@]12CC[C@@H]3c4ccc(O)cc4C[C@@H](CCCCCCCCC[S+]([O-])CCCC(F)(F)C(F)(F)F)[C@H]3[C@@H]1CC[C@@H]2O` (stereo partly shown) [fulvestrant] showed an IC50 [2] of 0.149 nM and an IC50 [1] of 0.86 nM.
In the case of `Oc1ccc2c(c1)CC[C@H](c1ccccc1)[C@@H]2c1ccc(OCCN2CCCC2)cc1` [lasofoxofene, Lasofoxifene], the IC50 ([1]; 0.1 nM estradiol (E2), 7 day) is reported as 0.17 nM.
In the case of `O=C(c1ccc(OCCN2CCCCC2)cc1)c1c(-c2ccc(O)cc2)sc2cc(O)ccc12` [raloxifene], the IC50 [1] is reported as 0.77 nM.
